The values that follow come from patent publication US10030021B2, “Spirocyclic morphinans and use thereof” (Purdue Pharma L.P., priority 2014, dated 2018).

SMILES strings stand for the structures. A value given as a limit tells only on which side of the number the result lay.

One assay addresses T1, κ opioid receptor (Homo sapiens, UniProt P41145).
T1 construct: expressed in transfected cells; host or cells: HEK-293 (inferred from the in-house κ membrane preparation)
The assay can be described thus: κ-opioid receptor [35S]GTPγS functional assay. The assay is classed as biochemical. On the procedure: Functional [^35S]GTPγS binding assays were conducted as follows. κ opioid receptor membrane solution was prepared by sequentially adding final concentrations of 0.026 μg/μl κ membrane protein (in-house), 10 μg/mL saponin, 3 μM GDP and 0.20 nM [^35S]GTPγS to binding buffer (100 mM NaCl, 10 mM MgCl2, 20 mM HEPES, pH 7.4) on ice. The prepared membrane solution (190 μl/well) was transferred to 96-shallow well polypropylene plates containing 10 μl of 20× concentrated stock solutions of agonist prepared in DMSO. Plates were incubated for 30 min at a temperature of about 25° C. with shaking. Reactions were terminated by rapid filtration onto 96-well Unifilter GF/B filter plates (Perkin Elmer, Shelton, Conn.) using a 96-well tissue harvester (Packard) and followed by three filtration washes with 200 μl ice-cold binding buffer (10 mM NaH2PO4, 10 mM Na2HPO4, pH 7.4). Filter plates were subsequently dried at 50° C. for 2-3 hours. Fifty μ1/well scintillation cocktail (Perkin Elmer, Shelton, Conn.) was added and plates were counted in a Packard Top-Count for 1 min/well.
κ GTP EC50 is the concentration of a compound providing 50% of the maximal response for the compound at a κ receptor.
κ GTP Emax (%) is the maximal effect elicited by a compound relative to the effect elicited by U69,593.
(In general: GTPγS is a poorly hydrolysed GTP analogue; its binding reports G protein activation.)

The target in the next assay is T2, μ-opioid receptor (Homo sapiens, UniProt P35372).
T2 construct: purchased Perkin Elmer, Shelton, Conn
T2 sequence (P35372 whole entry, species assumed): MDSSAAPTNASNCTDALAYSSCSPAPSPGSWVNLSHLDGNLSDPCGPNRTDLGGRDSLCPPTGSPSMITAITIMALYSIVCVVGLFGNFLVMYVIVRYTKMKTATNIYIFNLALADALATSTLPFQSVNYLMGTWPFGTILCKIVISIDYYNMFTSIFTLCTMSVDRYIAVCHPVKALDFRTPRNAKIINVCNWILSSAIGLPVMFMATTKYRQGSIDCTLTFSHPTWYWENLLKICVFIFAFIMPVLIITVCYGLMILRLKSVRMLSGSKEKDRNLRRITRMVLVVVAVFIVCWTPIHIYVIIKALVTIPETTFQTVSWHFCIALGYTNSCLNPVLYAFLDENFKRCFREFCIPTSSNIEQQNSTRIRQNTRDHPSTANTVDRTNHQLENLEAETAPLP
The assay is described as follows: μ-opioid receptor [35S]GTPγS functional assay. The assay is classed as biochemical. The following applies: for Emax: maximal effect relative to DAMGO. On the procedure:
[^35S]GTPγS functional assays were conducted using freshly thawed μ-receptor membranes (Perkin Elmer, Shelton, Conn.). Assay reactions were prepared by sequentially adding the following reagents to binding buffer (100 mM NaCl, 10 mM MgCl2, 20 mM HEPES, pH 7.4) on ice (final concentrations indicated): membrane protein (0.026 mg/mL), saponin ([…]), GDP ([…]) and [^35S]GTPγS (0.20 nM; Perkin Elmer, Shelton, Conn.). The prepared membrane solution (190 μl/well) was transferred to 96-shallow well polypropylene plates containing 10 μl of 20× concentrated stock solutions of the agonist [D-Ala^2, N-methyl-Phe^4 Gly-ol^5]-enkephalin (DAMGO) prepared in dimethyl sulfoxide (DMSO). Plates were incubated for 30 min at about 25° C. with shaking. Reactions were terminated by rapid filtration onto 96-well Unifilter GF/B filter plates (Perkin Elmer, Shelton, Conn.) using a 96-well tissue harvester (Perkin Elmer, Shelton, Conn.) followed by three filtration washes with 200 μl of ice-cold wash buffer (10 mM NaH2PO4, 10 mM Na2HPO4, pH 7.4). Filter plates were subsequently dried at 50° C. for 2-3 hours. BetaScint scintillation cocktail (Perkin Elmer, Shelton, Conn.) was added (50 μl/well) and plates were counted using a Packard Top-Count for 1 min/well. Data were analyzed using the sigmoidal dose-response curve fitting functions in GraphPad PRISM v. 3.0, or an in-house function for non-linear, sigmoidal dose-response curve-fitting.
μ GTP EC50 is the concentration of a compound providing 50% of the maximal response for the compound at a μ-opioid receptor.
μ GTP Emax (%) is the maximal effect elicited by a compound relative to the effect elicited by DAMGO, a standard agonist. Generally, the μ GTP Emax (%) value measures the efficacy of a compound to treat or prevent pain or other Conditions.

The target of assay [1] is T3, human kappa opioid receptor (κ) (Homo sapiens, UniProt P41145).
T3 construct: expressed in transfected cells; host or cells: HEK-293
T3 sequence (P41145 whole entry): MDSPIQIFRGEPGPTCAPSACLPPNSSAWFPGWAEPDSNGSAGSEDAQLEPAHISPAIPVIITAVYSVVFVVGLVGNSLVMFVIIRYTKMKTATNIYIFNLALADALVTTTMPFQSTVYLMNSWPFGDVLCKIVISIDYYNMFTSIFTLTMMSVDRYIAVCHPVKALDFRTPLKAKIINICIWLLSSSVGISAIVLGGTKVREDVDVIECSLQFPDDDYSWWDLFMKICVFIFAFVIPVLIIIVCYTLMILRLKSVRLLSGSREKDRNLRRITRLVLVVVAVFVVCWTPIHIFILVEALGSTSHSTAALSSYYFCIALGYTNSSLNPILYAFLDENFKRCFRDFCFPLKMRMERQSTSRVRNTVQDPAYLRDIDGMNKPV
The assay can be described thus: κ-opioid receptor radioligand ([3H]-U69,593) dose displacement binding assay. As for the experimental part:
Membranes from recombinant HEK-293 cells expressing the human kappa opioid receptor (κ) (cloned in house) were prepared by lysing cells in ice cold hypotonic buffer (2.5 mM MgCl2, 50 mM HEPES, pH 7.4) (10 mL/10 cm dish) followed by homogenization with a tissue grinder/Teflon pestle. Membranes were collected by centrifugation at 30,000×g for 15 min at 4° C. and pellets were resuspended in hypotonic buffer to a final concentration of 1-3 mg/mL. Protein concentrations were determined using the BioRad protein assay reagent with bovine serum albumen as standard. Aliquots of κ receptor membranes were stored at −80° C.
Radioligand dose displacement assays used 0.4 nM [^3H]-U69,593 (GE Healthcare, Piscataway, N.J.; 40 Ci/mmole) with 15 μg membrane protein (recombinant κ opioid receptor expressed in HEK 293 cells; in-house prep) in a final volume of 200 μl binding buffer (5% DMSO, 50 mM Trizma base, pH 7.4). Non-specific binding was determined in the presence of 10 μM unlabeled naloxone or U69,593. All reactions were performed in 96-well polypropylene plates for 1 hour at a temperature of about 25° C. […] Fifty μl/well scintillation cocktail (Perkin Elmer, Shelton, Conn.) was added and plates were counted in a Packard Top-Count for 1 min/well.

T1 sequence (P41145 whole entry): as above

In general, EC50 refers to the concentration at which the effect is half-maximal. Higher therefore signals a less potent agent. One may read the Emax as the size of the effect at its maximum, as opposed to the concentration needed. One may read the Ki as a measure of affinity in units of concentration, obtained from inhibition or displacement. For the molecule `CCN1C(=O)N(CC)[C@]2(CC[C@H]3[C@H]4Cc5ccc(O)cc5[C@@]3(CCN4C)C2)C1=O` [Compound 21, (4S,4b′S,8a′R,9′R)-1,3-diethyl-3′-hydroxy-11′-methyl-8′,8a′,9′,10′-tetrahydro-5′H,7′H-spiro[imidazolidine-4,6′-[9,4b](epiminoethano)phenanthrene]-2,5-dione], the EC50 is 0.221 ± 0.0226 µM at κ opioid receptor and 0.0547 ± 0.00776 µM on μ-opioid receptor. Moreover, the results for the Emax at κ opioid receptor (maximal effect relative to U69,593) and at μ-opioid receptor were 56.7 ± 3.66% and 24.7 ± 2.46%, respectively. This molecule also gave a Ki in assay [1] of 0.0105 ± 0.00111 µM.

With `CCN1C(=O)N(CC)[C@]2(CC[C@@]3(O)[C@H]4Cc5ccc(O)cc5[C@@]3(CCN4CCN(C)C)C2)C1=O` [Compound 26, (4S,4b′R,8a′S,9′R)-11′-(2-(dimethylamino)ethyl)-1,3-diethyl-3′,8a′-dihydroxy-8′,8a′,9′,10′-tetrahydro-5′H,7′H-spiro[imidazolidine-4,6′-[9,4b](epiminoethano)phenanthrene]-2,5-dione], on μ-opioid receptor, the EC50 is over 20 µM and the Emax worked out at 0.5%.

As to `CCN1C(=O)N(CC)[C@]2(CC[C@@]3(O)[C@H]4Cc5ccc(O)cc5[C@@]3(CCN4CCCN(C)C)C2)C1=O` [Compound 27, (4S,4b′R,8a′S,9′R)-11′-(3-(dimethylamino)propyl)-1,3-diethyl-3′,8a′-dihydroxy-8′,8a′,9′,10′-tetrahydro-5′H,7′H-spiro[imidazolidine-4,6′-[9,4b](epiminoethano)phenanthrene]-2,5-dione], on μ-opioid receptor, the EC50 is over 20 µM and the Emax is 1%.

As to `CN(C)CCCN1CC[C@]23C[C@@]4(CC[C@@]2(O)[C@H]1Cc1ccc(O)cc13)C(=O)N(CC1CC1)C(=O)N4CC1CC1` [Compound 28, (4S,4b′R,8a′S,9′R)-1,3-bis(cyclopropylmethyl)-11′-(3-(dimethylamino)propyl)-3′,8a′-dihydroxy-8′,8a′,9′,10′-tetrahydro-5′H,7′H-spiro[imidazolidine-4,6′-[9,4b](epiminoethano)-phenanthrene]-2,5-dione], on μ-opioid receptor, the EC50 was over 20 µM and the Emax was determined as 1.36%.

Regarding `CN(C)CCN1CC[C@]23C[C@]4(CC[C@@]2(O)[C@H]1Cc1ccc(O)cc13)NC(=O)NC4=O` [Compound 29, (4S,4b′R,8a′S,9′R)-11′-(2-(dimethylamino)ethyl)-3′,8a′-dihydroxy-8′,8a′,9′,10′-tetrahydro-5′H,7′H-spiro[imidazolidine-4,6′-[9,4b](epiminoethano)phenanthrene]-2,5-dione], at μ-opioid receptor, the EC50 came out at 3.92 ± 0.571 µM and the Emax worked out at 23.4 ± 1.68%.

Regarding `CN(C)CCCN1CC[C@]23C[C@]4(CC[C@@]2(O)[C@H]1Cc1ccc(O)cc13)NC(=O)NC4=O` [Compound 30, (4S,4b′R,8a′S,9′R)-11′-(3-(dimethylamino)propyl)-3′,8a′-dihydroxy-8′,8a′,9′,10′-tetrahydro-5′H,7′H-spiro[imidazolidine-4,6′-[9,4b](epiminoethano)phenanthrene]-2,5-dione], on μ-opioid receptor, the EC50 is over 20 µM and the Emax is 1%.

At μ-opioid receptor, `CCN1C(=O)N(CC)[C@]2(CC[C@@]3(O)[C@H]4Cc5ccc(C#N)cc5[C@@]3(CCN4C)C2)C1=O` [Compound 32, (4S,4b′R,8a′S,9′R)-1,3-diethyl-8a′-hydroxy-11′-methyl-2,5-dioxo-8′,8a′,9′,10′-tetrahydro-5′H,7′H-spiro[imidazolidine-4,6′-[9,4b](epiminoethano)phenanthrene]-3′-carbonitrile] registered an EC50 of over 20 µM and an Emax of 16.3 ± 1.76%.

On μ-opioid receptor, `CCN1C(=O)N(CC)[C@]2(CC[C@@]3(O)[C@H]4Cc5ccc(C(N)=O)cc5[C@@]3(CCN4C)C2)C1=O` [Compound 33, (4S,4b′R,8a′S,9′R)-1,3-diethyl-8a′-hydroxy-11′-methyl-2,5-dioxo-8′,8a′,9′,10′-tetrahydro-5′H,7′H-spiro[imidazolidine-4,6′-[9,4b](epiminoethano)phenanthrene]-3′-carboxamide] yielded an EC50 of 0.974 ± 0.117 µM and an Emax of 39.3 ± 1.78%.

On μ-opioid receptor, `CCN1C(=O)N(CC)[C@]2(CC[C@@]3(O)[C@H]4Cc5ccc(/C(N)=N\O)cc5[C@@]3(CCN4C)C2)C1=O` [Compound 34, (4S,4b′R,8a′S,9′R,E)-1,3-diethyl-N′,8a′-dihydroxy-11′-methyl-2,5-dioxo-8′,8a′,9′,10′-tetrahydro-5′H,7′H-spiro[imidazolidine-4,6′-[9,4b](epiminoethano)phenanthrene]-3′-carboximidamide] displayed an EC50 of 17.2 ± 1.2 µM and an Emax of 29.7 ± 1.18%.
